Experimental data: patent publication US9174965B2, “Pyrimidinylpiperidinyloxypyridone analogues as GPR119 modulators” (BRISTOL-MYERS SQUIBB COMPANY, priority 2012, dated 2015)
≈ marks a conversion by molar mass, not a printed value.

Experiments:
Aqueous solubility assay = assay type: physicochemical; details: aqueous buffer, thermodynamic from solid; pH 6.5 phosphate buffer, room temperature, 18-24 h
Procedure: Approximately 0.75 mg of accurately weighed test compound was added to 1 mL of a pH 6.5 phosphate buffer (50 mM Potassium Phosphate Buffer) to make solutions with a nominal targeted concentration of 1 mM. The vial was then rotated on an orbital shaker at room temperature for 18-24 h. After equilibration time had been met, the test solution was centrifuge filtered through a 0.45 um membrane (Millipore Ultrafree Centrifugal Filters, Durapore PVDF 0.45 um). The filtrate was then analyzed by an Agilent HP1100 HPLC/UV at multiple wavelengths using diode array detection (e.g. 210, 230, 254 and 280 nm) against a previously generated calibration curve to determine compound concentration.
Find below in Table 9 data for compared compounds (See WO 2011/127106 A1).

male C57BL/6J mice = assay: Mouse oral glucose tolerance test; assay type: in vivo; details: for Glucose Lowering: at the minimally efficacious dose, plasma glucose AUC in oGTT; for Minimally efficacious Dose: oGTT in C57BL/6J mice
Procedure: Mouse Oral Glucose Tolerance Test
Twenty four (24) male C57BL/6J mice (8-10 weeks old, average weight 28 g) were randomized into 4 groups (1 mouse/cage) of 6 mice per group based on fed plasma glucose and body weight. Prior to initiating the study, mice were fasted overnight and the next morning they were weighed and placed in the experimental lab. After 30 min in the environment, the mice were bled via tail tip at −60 min and immediately given their first oral administration of vehicle (40% PEG400, 10% Cremophor EL, 50% water) or compound solutions (5 ml/kg). At time 0 the mice were bled and given 50% glucose (2 g/kg) to initiate the oral glucose tolerance test (oGTT). The mice were bled 30, 60 and 120 min after the glucose load. Blood samples were drawn into potassium EDTA, placed on ice during the study and subsequently centrifuged for 10 min at 3000 rpm at 4° C. Plasma samples were diluted 11-fold for glucose analysis in the COBAS MIRA® System (Roche Diagnostics). Area under the curve was calculated from the plasma glucose time course data using the trapezoid rule with fasting plasma glucose as the baseline (GraphPad Prism Software). The statistical significance of the changes in the glucose AUCs resulting from the different treatments was determined by one-way ANOVA followed by Dunnett's test using the vehicle group as the control (JMP software, release 5.1.2).
Find below in Table 7 data for compared compounds (See WO 2009/012275 A1).

in vitro = details: human, microsomes, pH 7.4
Procedure: (§1) Metabolic Stability in Liver Microsomes Test
(§2) The test compound was received as a 3.5 mM stock solution in 100 percent dimethyl sulfoxide (“DMSO”, Sigma Aldritch). The compound solution was diluted to create a 50 μM acetonitrile (“ACN”, Sigma Aldritch) solution containing 1.4% DMSO, which is then used as a 100-fold stock for incubation with microsomes. The test compound, β-nicotinamide adenine dinucleotide phosphate (“NADPH”, AppliChem Inc.) and liver microsome solutions are combined for incubation in three steps:
(§3) 1) 450 μl of liver microsome suspension, protein concentration of 1.1 mg/ml in 100 mM sodium (+)/phosphate (“NaPi”, pH 7.4, Sigma Aldritch) buffer, 5 mM magnesium chloride (“MgCl2, Sigma Aldritch) buffer, is pre-warmed at 37° C.;
(§4) 2) 5 μl of 50 μM test compound (98.6% ACN, 1.4% DMSO) is added to the same tube and pre-incubated at 37° C. for 5 minutes; and
(§5) 3) The reaction is initiated by the addition of 50 μl of pre-warmed 10 mM NADPH solution in 100 mM NaPi, pH 7.4.
(§6) Reaction components are mixed well and then 65 μl are immediately transferred into 130 μl quench/stop solution (zero-time point, T0). The reactions are incubated at 37° C. for 5, 10, 15, 30 and 45 minutes and at each time-point a 65 μl aliquot is transferred into 130 μl of quench solution. ACN containing Internal Standard (100 ng/ml), is used as the quench solution to terminate metabolic reactions. The quenched mixtures are centrifuged at 1500 rpm (˜500×g) in an Allegra X-12 centrifuge, SX4750 rotor (Beckman Coulter Inc., Fullerton, Calif.) for fifteen minutes to pellet denatured microsomes. A volume of 90 μl of supernatant extract, containing the mixture of parent compound and its metabolites, is then transferred to a separate 96-well plate for LC/MS-MS analysis to determine the percent of parent compound that is remaining in the mixture. Peak integration is performed on all samples using the Hepatic Clearance Calculator of QuickCalc by Gubbs, Inc. The percent remaining calculation is performed by comparing the LC-MS/MS peak areas from the samples at each time point to those from the T0 samples for each compound. T1/2 values are calculated from linear regression of the LN (% Remaining) over time, and the slope of that regression (Kel) is used to calculate T1/2, using the following equation: T1/2=−0.693/Kel.

[1] = Metabolic stability in liver microsomes test; details: human, pH 7.4
Procedure: as §1, §2, §3, §4, §5, §6

| solubility (Aqueous solubility assay) [µg/mL] | half-life at 0.5 µM (in vitro) [min] | half-life at 0.5 µM [1] [min] | Structure (SMILES) | Glucose Lowering (male C57BL/6J mice) [%] | Minimally efficacious Dose (male C57BL/6J mice) [mg/kg] |
| --- | --- | --- | --- | --- | --- |
| 4 (≈ 7.53 µM) | 94 |  | Cc1nc(-n2cc(Cl)c(OC3CCN(c4ncc(Cl)cn4)CC3)cc2=O)ccc1N1CCC(O)C1=O (centres unmarked) [Example 1, 5-chloro-4-((1-(5-chloropyrimidin-2-yl)piperidin-4-yl)oxy)-5′-(3-hydroxy-2-oxopyrrolidin-1-yl)-6′-methyl-2H-[1,2′-bipyridin]-2-one] | −36 | 0.03 |
| 1 (≈ 1.86 µM) |  | 120 | CCCc1cnc(N2CCC(Oc3cc(=O)n(-c4ccc(N5CCC(O)C5=O)c(C)n4)cc3Cl)CC2)nc1 (centres unmarked) [Example 2, 5-chloro-5′-(3-hydroxy-2-oxopyrrolidin-1-yl)-6′-methyl-4-((1-(5-propylpyrimidin-2-yl)piperidin-4-yl)oxy)-2H-[1,2′-bipyridin]-2-one] | −19 | 0.03 |
| 3 (≈ 5.95 µM) | 76 |  | CCCc1cnc(N2CCC(Oc3ccn(-c4ccc(N5CCC(O)C5=O)c(C)n4)c(=O)c3)CC2)nc1 (centres unmarked) [Example 5, 5′-(3-hydroxy-2-oxopyrrolidin-1-yl)-6′-methyl-4-((1-(5-propylpyrimidin-2-yl)piperidin-4-yl)oxy)-2H-[1,2′-bipyridin]-2-one] | −21 | 0.1 |
| 7 (≈ 14.1 µM) | 101 |  | Cc1nc(-n2ccc(OC3CCN(c4ncc(Cl)cn4)CC3)cc2=O)ccc1N1CCC(O)C1=O (centres unmarked) [Example 6, 4-((1-(5-chloropyrimidin-2-yl)piperidin-4-yl)oxy)-5′-(3-hydroxy-2-oxopyrrolidin-1-yl)-6′-methyl-2H-[1,2′-bipyridin]-2-one] |  |  |
